Converted amounts (≈) assume the structure as drawn.
Tested on: up to 32 different microorganisms
Assay: in vitro antibacterial activity (MIC), agar dilution on Brain Heart Infusion (BHI) agar with Steers replicator
Type: cell-based
Conditions: unit assumed
In short: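 MIC read visually: lowest drug level with no growth, slight haze or sparsely isolated colonies on the inoculum spot relative to drug-free control. Serial aqueous compound dilutions in BHI agar, 1:100 inoculum (1:10 slow strains), 20 to 24 hours at 35°-37° C.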

SMILES: CC[C@H]1OC(=O)[C@H](C)C(=O)[C@H](C)[C@@H](O[C@@H]2O[C@H](C)C[C@H](N(C)C)[C@H]2O)[C@@](C)(OCC=Cc2cnc3ccccc3c2)C[C@@H](C)C(=O)[C@H](C)[C@@H](O)[C@]1(C)O [Example 18, Compound of Formula (VIII): X is O, R is —CH2CH═CH-(3-quinolyl)]
- MIC (Candida albicans CCH 442 (code TT)): > 100 µg/mL
- MIC (Enterococcus faecism ATCC 8043 (code II)): 0.2 µg/mL
- MIC (Escherichia coli DC-2 (code SS)): > 100 µg/mL
- MIC (Escherichia coli JUHL (code QQ)): > 100 µg/mL
- MIC (Escherichia coli SS (code RR)): 0.39 µg/mL
- MIC (Haemophilis influenzae DILL AMP R (code WW)): 16 µg/mL
- MIC (Micrococcus luteus ATCC 4698 (code PP)): 0.2 µg/mL
- MIC (Nocardia Asteroides ATCC9970 (code VV)): 0.1 µg/mL
- MIC (Staphylococcus aureus 1775 (code GG)): > 100 µg/mL
- MIC (Staphylococcus aureus A5177 (code BB)): 0.2 µg/mL
- MIC (Staphylococcus aureus A-5278 (code CC)): > 100 µg/mL
- MIC (Staphylococcus aureus ATCC 6538P (code AA)): 0.2 µg/mL
- MIC (Staphylococcus aureus CMX 553 (code FF)): 0.2 µg/mL
- MIC (Staphylococcus aureus CMX 642A (code DD)): 0.2 µg/mL
- MIC (Staphylococcus aureus NCTC10649M (code EE)): 0.2 µg/mL
- MIC (Staphylococcus epidermidis 3519 (code HH)): 0.2 µg/mL
- MIC (Streptococcus Pneumonia 5649 (code ZZA)): 0.25 µg/mL
- MIC (Streptococcus Pneumonia 5979 (code ZZ)): 128 µg/mL
- MIC (Streptococcus Pneumonia ATCC6303 (code XX)): 0.03 µg/mL
- MIC (Streptococcus agalactiae CMX 508 (code KK)): 0.2 µg/mL
- MIC (Streptococcus pyogenes 930 (code MM)): 100 µg/mL
- MIC (Streptococcus pyogenes EES61 (code LL)): 0.2 µg/mL
- MIC (Streptococcus pyogenes PIU 2548 (code NN)): 0.1 µg/mL

SMILES: CC[C@H]1OC(=O)[C@H](C)C(=O)[C@H](C)[C@@H](O[C@@H]2O[C@H](C)C[C@H](N(C)C)[C@H]2O)[C@@](C)(OCC#Cc2ccc(C(=O)Nc3ccccn3)o2)C[C@@H](C)C(=O)[C@H](C)[C@H]2NC(=O)O[C@@]21C [Example 256]
- MIC (organism code AA): 0.05 µg/mL (≈ 0.0608 µM)
- MIC (organism code BB): 0.05 µg/mL (≈ 0.0608 µM)
- MIC (organism code CC): > 100 µg/mL
- MIC (organism code DD): 0.05 µg/mL (≈ 0.0608 µM)
- MIC (organism code EE): 0.05 µg/mL (≈ 0.0608 µM)
- MIC (organism code FF): 0.02 µg/mL (≈ 0.0243 µM)
- MIC (organism code GG): > 100 µg/mL
- MIC (organism code HH): 0.1 µg/mL (≈ 0.122 µM)
- MIC (organism code II): 0.02 µg/mL (≈ 0.0243 µM)
- MIC (organism code JJ): 0.01 µg/mL (≈ 0.0122 µM)
- MIC (organism code KK): 0.02 µg/mL (≈ 0.0243 µM)
- MIC (organism code LL): 0.01 µg/mL (≈ 0.0122 µM)
- MIC (organism code MM): 25 µg/mL (≈ 30.4 µM)
- MIC (organism code NN): 0.2 µg/mL (≈ 0.243 µM)
- MIC (organism code OO): 0.01 µg/mL (≈ 0.0122 µM)
- MIC (organism code PP): 0.1 µg/mL (≈ 0.122 µM)
- MIC (organism code QQ): 100 µg/mL (≈ 122 µM)
- MIC (organism code RR): 0.2 µg/mL (≈ 0.243 µM)
- MIC (organism code SS): > 100 µg/mL
- MIC (organism code TT): > 100 µg/mL
- MIC (organism code UU): 1.56 µg/mL (≈ 1.9 µM)
- MIC (organism code VV): 0.05 µg/mL (≈ 0.0608 µM)
- MIC (organism code WW): 2 µg/mL (≈ 2.43 µM)
- MIC (organism code XX): 0.03 µg/mL (≈ 0.0365 µM)
- MIC (organism code YY): 0.03 µg/mL (≈ 0.0365 µM)
- MIC (organism code ZZ): 16 µg/mL (≈ 19.4 µM)
- MIC (organism code ZZA): 0.25 µg/mL (≈ 0.304 µM)

SMILES: CCC1OC(=O)C(C)C(=O)C(C)C(OC2OC(C)CC(N(C)C)C2O)C(C)(OCC=Cc2cnc3ccc(O)cc3c2)CC(C)C(=O)C(C)C2NC(=O)OC12C (centres unmarked) [Example 208, R is —CH2CH═CH-(6-hydroxy-3-quinolyl)]
- MIC (organism code AA): 0.1 µg/mL (≈ 0.128 µM)
- MIC (organism code BB): 0.39 µg/mL (≈ 0.499 µM)
- MIC (organism code CC): > 100 µg/mL
- MIC (organism code DD): 0.2 µg/mL (≈ 0.256 µM)
- MIC (organism code EE): 0.2 µg/mL (≈ 0.256 µM)
- MIC (organism code FF): 0.2 µg/mL (≈ 0.256 µM)
- MIC (organism code GG): > 100 µg/mL
- MIC (organism code HH): 0.2 µg/mL (≈ 0.256 µM)
- MIC (organism code II): 0.1 µg/mL (≈ 0.128 µM)
- MIC (organism code JJ): 0.01 µg/mL (≈ 0.0128 µM)
- MIC (organism code KK): 0.01 µg/mL (≈ 0.0128 µM)
- MIC (organism code LL): 0.01 µg/mL (≈ 0.0128 µM)
- MIC (organism code MM): 0.78 µg/mL (≈ 0.998 µM)
- MIC (organism code NN): 0.39 µg/mL (≈ 0.499 µM)
- MIC (organism code OO): 0.01 µg/mL (≈ 0.0128 µM)
- MIC (organism code PP): 0.1 µg/mL (≈ 0.128 µM)
- MIC (organism code QQ): 25 µg/mL (≈ 32 µM)
- MIC (organism code RR): 0.39 µg/mL (≈ 0.499 µM)
- MIC (organism code SS): 50 µg/mL (≈ 63.9 µM)
- MIC (organism code TT): > 100 µg/mL
- MIC (organism code UU): 0.78 µg/mL (≈ 0.998 µM)
- MIC (organism code VV): 0.2 µg/mL (≈ 0.256 µM)
- MIC (organism code WW): 2 µg/mL (≈ 2.56 µM)
- MIC (organism code XX): 0.03 µg/mL (≈ 0.0384 µM)
- MIC (organism code YY): 0.03 µg/mL (≈ 0.0384 µM)
- MIC (organism code ZZ): 4 µg/mL (≈ 5.12 µM)
- MIC (organism code ZZA): 1 µg/mL (≈ 1.28 µM)

SMILES: CC[C@H]1OC(=O)[C@H](C)C(=O)[C@H](C)[C@@H](O[C@@H]2O[C@H](C)C[C@H](N(C)C)[C@H]2O)[C@@](C)(OCC=NOCc2ccc3ncccc3c2)C[C@@H](C)C(=O)[C@H](C)[C@H]2NC(=O)O[C@@]21C [Example 234, Compound of Formula (IX): L is CO, T is NH, R is —CH2CH═NOCH2(6-quinolyl)]
- MIC (organism code AA): 0.1 µg/mL
- MIC (organism code BB): 0.1 µg/mL
- MIC (organism code CC): > 100 µg/mL
- MIC (organism code DD): 0.2 µg/mL
- MIC (organism code EE): 0.2 µg/mL
- MIC (organism code FF): 0.1 µg/mL
- MIC (organism code GG): > 100 µg/mL
- MIC (organism code HH): 0.1 µg/mL
- MIC (organism code II): 0.05 µg/mL
- MIC (organism code JJ): ≤ 0.005 µg/mL
- MIC (organism code KK): 0.05 µg/mL
- MIC (organism code LL): 0.01 µg/mL
- MIC (organism code MM): 100 µg/mL
- MIC (organism code NN): 0.2 µg/mL
- MIC (organism code OO): 0.01 µg/mL
- MIC (organism code PP): 0.1 µg/mL
- MIC (organism code QQ): 50 µg/mL
- MIC (organism code RR): 0.39 µg/mL
- MIC (organism code SS): 50 µg/mL
- MIC (organism code TT): > 100 µg/mL
- MIC (organism code UU): 0.78 µg/mL
- MIC (organism code VV): 0.1 µg/mL
- MIC (organism code WW): 2 µg/mL
- MIC (organism code XX): 0.03 µg/mL
- MIC (organism code YY): 0.03 µg/mL
- MIC (organism code ZZ): > 128 µg/mL
- MIC (organism code ZZA): 0.25 µg/mL
